According to US4362743A, “Antibacterial monic acid esters” (Beecham Group Limited, priority 1980, dated 1982):
Converted amounts (≈) assume the structure as drawn. Like-named read-outs stand apart in the source and are kept apart here.

Columns and labels:
Format in all cases: cell-based
[1] = test system: M. suipneumoniae Str. 11; experiment: Anti-mycoplasmal activity in vitro MIC; conditions: Mesomycoplasma hyopneumoniae
[2] = test system: M. pneumoniae ATCC 15492; experiment: Anti-mycoplasmal activity in vitro MIC; conditions: Mycoplasmoides pneumoniae, ATCC15492, 144 h
[3] = test system: M. hyorhinis ATCC 25021; experiment: Anti-mycoplasmal activity in vitro MIC; conditions: Mesomycoplasma hyorhinis, ATCC25021, 144 h
[4] = test system: Past. multocida PA2; experiment: Veterinary bacteria MIC; conditions: Pasteurella multocida
Description: (§1) The values were determined using a two fold serial dilutions in Diagnostic Sensitivity Test Agar with an inoculum of 10^4 organisms and incubation for 18 hours at 37° C.

[5] = test system: Staph. aureus Oxford; experiment: Veterinary bacteria MIC; conditions: Staphylococcus aureus, Diagnostic Sensitivity Test Agar, 18 hours 37° C.
Description: as §1

[6] = test system: Past. multocida PA1; experiment: Veterinary bacteria MIC; conditions: Pasteurella multocida, Diagnostic Sensitivity Test Agar, 18 hours 37° C.
Description: as §1

[7] = test system: S. typhimurium S18; experiment: Veterinary bacteria MIC; conditions: Salmonella enterica
Description: as §1

[8] = test system: Staph. aureus 152 (pen. sens); experiment: Veterinary bacteria MIC; conditions: Staphylococcus aureus, Diagnostic Sensitivity Test Agar, 18 hours 37° C.
Description: as §1

[9] = test system: Strep. agalactiae SPA1; experiment: Veterinary bacteria MIC; conditions: Streptococcus agalactiae, Diagnostic Sensitivity Test Agar, 18 hours 37° C.
Description: as §1

[10] = test system: Strep. dysgalactiae SPD1; experiment: Veterinary bacteria MIC; conditions: Streptococcus dysgalactiae, Diagnostic Sensitivity Test Agar, 18 hours 37° C.
Description: as §1

[11] = test system: Bord. bronchiseptica B08; experiment: Veterinary bacteria MIC; conditions: Bordetella bronchiseptica; Bord. bronchiseptica B08; Diagnostic Sensitivity Test Agar, 18 hours 37° C.; read-out: M.I.C.
Description: as §1

[12] = test system: E. coli NCTC 10418; experiment: Veterinary bacteria MIC; conditions: Escherichia coli
Description: as §1

[13] = test system: Bord. brochiasetpica B09; experiment: Veterinary bacteria MIC; conditions: Diagnostic Sensitivity Test Agar, 18 hours 37° C.
Description: as §1

[14] = test system: S. dublin S7; experiment: Veterinary bacteria MIC; conditions: Salmonella enterica
Description: as §1

[15] = test system: Strep. suis (Group D) SPS11; experiment: Veterinary bacteria MIC; conditions: Streptococcus suis; Strep. suis (Group D) SPS11; Diagnostic Sensitivity Test Agar, 18 hours 37° C.; read-out: M.I.C.
Description: as §1

[16] = test system: Past. haemolytica PA5; experiment: Veterinary bacteria MIC; conditions: Mannheimia haemolytica
Description: as §1

[17] = test system: E. coli El; experiment: Veterinary bacteria MIC; conditions: Escherichia coli
Description: as §1

[18] = test system: Staph. aureus B4 (pen. resistant); experiment: Veterinary bacteria MIC; conditions: Staphylococcus aureus, Diagnostic Sensitivity Test Agar, 18 hours 37° C.
Description: as §1

[19] = test system: Strep. uberis SPU1; experiment: Veterinary bacteria MIC; conditions: Streptococcus uberis, Diagnostic Sensitivity Test Agar, 18 hours 37° C.
Description: as §1

[20] = test system: Corynebacterium pyogenes CY1; experiment: Veterinary bacteria MIC; conditions: Trueperella pyogenes
Description: as §1

[21] = test system: Erysipelothrix rhusiopathiae NCTC 8163; experiment: Veterinary bacteria MIC
Description: as §1

[22] = test system: M. bovis NCTC 10131; experiment: microbe, parasite or virus in culture; conditions: NCTC10131, 144 h
[23] = test system: M. hyorhinis ATCC 23234; experiment: Anti-mycoplasmal activity in vitro MIC; conditions: Mesomycoplasma hyorhinis, ATCC23234, 144 h
[24] = test system: Strep. Group C 64/848; experiment: Human bacteria MIC
Description: The values were determined by serial dilutions in nutrient agar with 5% chocolated horse blood after incubations for 18 hours at 37° C.

[25] = test system: M. suipneumoniae UCD 1; experiment: Anti-mycoplasmal activity in vitro MIC; conditions: Mesomycoplasma hyopneumoniae, UCD1, 144 h
[26] = test system: M. suipneumoniae J2206/183b; experiment: Anti-mycoplasmal activity in vitro MIC; conditions: Mesomycoplasma hyopneumoniae, 144 h
[27] = test system: M. dispar NCTC 10125; experiment: Anti-mycoplasmal activity in vitro MIC; conditions: 144 h
[28] = test system: M. suipneumoniae NCTC 10110; experiment: Anti-mycoplasmal activity in vitro MIC; conditions: Mesomycoplasma hyopneumoniae, NCTC10110, 144 h
[29] = test system: M. suipneumoniae JF 435; experiment: Anti-mycoplasmal activity in vitro MIC; conditions: Mesomycoplasma hyopneumoniae, JF435, 144 h
[30] = test system: M. suipneumoniae TAM 6N; experiment: Anti-mycoplasmal activity in vitro MIC; conditions: Mesomycoplasma hyopneumoniae, TAM6N, 144 h
[31] = Past. multocida PA2, Diagnostic Sensitivity Test Agar, 18 hours 37° C., read-out: M.I.C.
[32] = S. typhimurium S18, Diagnostic Sensitivity Test Agar, 18 hours 37° C., read-out: M.I.C.
[33] = NCTC10418, E. coli NCTC 10418, Diagnostic Sensitivity Test Agar, 18 hours 37° C., read-out: M.I.C.
[34] = S. dublin S7, Diagnostic Sensitivity Test Agar, 18 hours 37° C., read-out: M.I.C.
[35] = Past. haemolytica PA5, Diagnostic Sensitivity Test Agar, 18 hours 37° C., read-out: M.I.C.
[36] = E. coli El, Diagnostic Sensitivity Test Agar, 18 hours 37° C., read-out: M.I.C.
[37] = Corynebacterium pyogenes CY1, Diagnostic Sensitivity Test Agar, 18 hours 37° C., read-out: M.I.C.
[38] = NCTC8163, Erysipelothrix rhusiopathiae NCTC 8163, Diagnostic Sensitivity Test Agar, 18 hours 37° C., read-out: M.I.C.
[39] = 144 h, M. suipneumoniae Str. 11, Friis broth, 0.9% agarose, 6 days 37° C., read-out: M.I.C.
[40] = Strep. Group C 64/848, nutrient agar, 5% chocolated horse blood, 18 hours 37° C., read-out: M.I.C.

Row | SMILES | MIC [3] [µg/mL] | MIC [4, 31] [µg/mL] | MIC [5] [µg/mL] | MIC [6] [µg/mL] | MIC [7, 32] [µg/mL] | MIC [8] [µg/mL] | MIC [9] [µg/mL] | MIC [10] [µg/mL] | MIC [11] [µg/mL] | MIC [12, 33] [µg/mL] | MIC [13] [µg/mL] | MIC [14, 34] [µg/mL] | MIC [15] [µg/mL] | MIC [16, 35] [µg/mL] | MIC [17, 36] [µg/mL] | MIC [18] [µg/mL] | MIC [19] [µg/mL] | MIC [20, 37] [µg/mL] | MIC [21, 38] [µg/mL] | MIC [22] [µg/mL] | also measured
1 | C/C(=C\C(=O)OC1CCC(=NO)CC1)C[C@@H]1OC[C@H](C[C@@H]2O[C@H]2[C@@H](C)[C@H](C)O)[C@@H](O)[C@H]1O (some centres unmarked) [Example 3, 4-Hydroxyiminocyclohexyl monate A] | 0.25 (≈ 0.549 µM) | 0.312 (≈ 0.685 µM) | 1.25 (≈ 2.74 µM) | 1.25 (≈ 2.74 µM) | > 80 | 1.25 (≈ 2.74 µM) | 0.625 (≈ 1.37 µM) | 0.312 (≈ 0.685 µM) | > 80 | > 80 | 20 (≈ 43.9 µM) | > 80 | 2.5 (≈ 5.49 µM) | 5 (≈ 11 µM) | > 80 | 2.5 (≈ 5.49 µM) | 0.156 (≈ 0.342 µM) | > 80 | 10 (≈ 22 µM) | ≤ 0.01 | MIC ([1]; STR.11, 144 h): 0.25 µg/mL (≈ 0.549 µM); MIC [2]: 1 µg/mL (≈ 2.2 µM); MIC [23]: 0.25 µg/mL (≈ 0.549 µM); MIC ([24]; 18 h): 1 µg/mL (≈ 2.2 µM); MIC ([25]; M. suipneumoniae UCD 1, Friis broth, 0.9% agarose, 6 days 37° C., read-out: M.I.C.): 0.5 µg/mL (≈ 1.1 µM); MIC ([26]; M. suipneumoniae J2206/183b, Friis broth, 0.9% agarose, 6 days 37° C., read-out: M.I.C.): 0.5 µg/mL (≈ 1.1 µM); MIC [27]: 0.1 µg/mL (≈ 0.22 µM); MIC ([28]; M. suipneumoniae NCTC 10110, Friis broth, 0.9% agarose, 6 days 37° C., read-out: M.I.C.): 0.5 µg/mL (≈ 1.1 µM); MIC ([29]; M. suipneumoniae JF 435, Friis broth, 0.9% agarose, 6 days 37° C., read-out: M.I.C.): 0.5 µg/mL (≈ 1.1 µM); MIC ([30]; M. suipneumoniae TAM 6N, Friis broth, 0.9% agarose, 6 days 37° C., read-out: M.I.C.): 0.5 µg/mL (≈ 1.1 µM)
2 | C/C(=C\C(=O)OCCCC(=NO)c1cccs1)C[C@@H]1OC[C@H](C[C@@H]2O[C@H]2[C@@H](C)[C@H](C)O)[C@@H](O)[C@H]1O [Example 4, 4-Hydroxyimino-4-(2-thienyl)butyl monate A] |  |  | 0.312 (≈ 0.61 µM) | 2.5 (≈ 4.89 µM) | > 80 | 0.312 (≈ 0.61 µM) | 0.625 (≈ 1.22 µM) | 0.625 (≈ 1.22 µM) | > 80 | > 80 | 5 (≈ 9.77 µM) | > 80 | 10 (≈ 19.5 µM) | 20 (≈ 39.1 µM) | > 80 | 0.625 (≈ 1.22 µM) | 0.312 (≈ 0.61 µM) | > 80 | 20 (≈ 39.1 µM) | 0.025 (≈ 0.0489 µM) | MIC [1, 39]: 0.25 µg/mL (≈ 0.489 µM); MIC ([2]; M. pneumoniae ATCC 15492, Friis broth, 0.9% agarose, 6 days 37° C., read-out: M.I.C.): 2.5 µg/mL (≈ 4.89 µM); MIC ([3]; M. hyorhinis ATCC 25021, Friis broth, 0.9% agarose, 6 days 37° C., read-out: M.I.C.): 0.25 µg/mL (≈ 0.489 µM); MIC ([4]; PA2, 18 h): 0.156 µg/mL (≈ 0.305 µM); MIC ([23]; M. hyorhinis ATCC 23234, Friis broth, 0.9% agarose, 6 days 37° C., read-out: M.I.C.): 0.25 µg/mL (≈ 0.489 µM); MIC [24, 40]: 1 µg/mL (≈ 1.95 µM); MIC [25]: 0.5 µg/mL (≈ 0.977 µM); MIC ([26]; J2206/183B): 0.5 µg/mL (≈ 0.977 µM); MIC ([27]; M. dispar NCTC 10125, Friis broth, 0.9% agarose, 6 days 37° C., read-out: M.I.C.): 0.1 µg/mL (≈ 0.195 µM); MIC [28]: 0.5 µg/mL (≈ 0.977 µM); MIC [29]: 0.5 µg/mL (≈ 0.977 µM); MIC [30]: 0.5 µg/mL (≈ 0.977 µM)
3 | C/C(=C\C(=O)OCc1ccc(C=NO)o1)C[C@@H]1OC[C@H](C[C@@H]2O[C@H]2[C@@H](C)[C@H](C)O)[C@@H](O)[C@H]1O [Example 7, 5-Hydroxyiminomethylfurfuryl monate A] | 0.5 (≈ 1.07 µM) | 0.625 (≈ 1.34 µM) | 1.25 (≈ 2.67 µM) | 0.625 (≈ 1.34 µM) |  | 1.25 (≈ 2.67 µM) | 1.25 (≈ 2.67 µM) | 0.625 (≈ 1.34 µM) | > 80 |  | 2.5 (≈ 5.35 µM) |  | 20 (≈ 42.8 µM) |  |  | 1.25 (≈ 2.67 µM) | 0.625 (≈ 1.34 µM) |  |  | ≤ 0.01 | MIC [1, 39]: 0.5 µg/mL (≈ 1.07 µM); MIC ([7]; TYPHIMURIUM, 18 h): > 80 µg/mL; MIC ([12]; NCTC10418, 18 h): > 80 µg/mL; MIC ([14]; S7, 18 h): > 80 µg/mL; MIC ([16]; PA5, 18 h): 5 µg/mL (≈ 10.7 µM); MIC ([17]; 18 h): > 80 µg/mL; MIC ([20]; CY1, 18 h): > 80 µg/mL; MIC ([21]; Erysipelothrix rhusiopathiae, NCTC8163, 18 h): > 80 µg/mL; MIC [23]: 0.5 µg/mL (≈ 1.07 µM); MIC [24, 40]: 2.5 µg/mL (≈ 5.35 µM); MIC [25]: 1 µg/mL (≈ 2.14 µM); MIC ([26]; J2206/183B): 1 µg/mL (≈ 2.14 µM); MIC [27]: 0.1 µg/mL (≈ 0.214 µM); MIC [28]: 1 µg/mL (≈ 2.14 µM); MIC [29]: 1 µg/mL (≈ 2.14 µM); MIC [30]: 1 µg/mL (≈ 2.14 µM)
